From patent US20170105981A1, “METHODS FOR STABILIZING HYPOXIA INDUCIBLE FACTOR-2 ALPHA AS A METHOD FOR TREATING CANCER” (The Ohio State Innovation Foundation, priority 2011, published 2017)

Columns and labels:
[1] = tested on: HIF-1α; assay: Immunoblot for HIF-1α in murine bone marrow-derived macrophages; type: cell-based; conditions: murine bone marrow-derived macrophages treated 18 hours; p=0.105; FIG. 11A
Protocol: To generate bone marrow-derived macrophages (BDMs), femoral bone marrow was isolated and progenitor cells were plated in RPMI-1640 supplemented with 10% FBS, 1% PSA, 10 μg/mL of polymyxin B, and 20 ng/mL of recombinant murine M-CSF. Cells were cultured for 5 days with the addition of fresh M-CSF every other day. Differentiated BDM were serum-starved for 2 hours and then treated with 100 ng/mL of murine GM-CSF and/or 25 μM the disclosed HIF-2α stabilizer in RPMI-1640 containing 1% FBS and 10 μg/mL polymixin B. Culture supernatants were collected after 72 hours and assayed for VEGF and sVEGFR-1 content by ELISA (R&D Systems).
In order to confirm the selective upregulation of HIF-2α by the disclosed HIF-2α stabilizer, murine bone marrow-derived macrophages were treated with the disclosed HIF-2α stabilizer for 18 hours, and cells were then lysed and immunoblotted for HIF-1α and HIF-2α.

[2] = tested on: tumor growth in HIF-2αflox/flox/LysMcre and LysMcre mice; assay: Tumor growth in mice with myeloid-specific deletion of HIF-2α vs LysMcre control mice; type: in vivo; conditions: FIG. 15
Text: HIF-2α^flox/flox mice (originally developed by Dr. Celeste Simon, University of Pennsylvania) and LysMcre recombinase mice (originally developed by Irmgard Foerster, University of Duesseldorf) (both purchased from The Jackson Laboratory, Bar Harbor, Me.) were crossed to generate mice homozygous for both LysMcre and the floxed HIF-2α allele. LysMcre recombinase mice, which express no floxed alleles, were used as controls. Deletion of HIF-2α in HIF-2α^flox/flox/LysMcre macrophages, but not the LysMcre control macrophages, was confirmed at the transcript level by real-time PCR.
The disclosed HIF-2α stabilizer is not targeted specifically to macrophages, and will stabilize HIF-2α in all tissues, not only the tumor-associated macrophages. In order to determine the role of macrophages in the anti-tumor response to the disclosed HIF-2α stabilizer, mice with a myeloid-specific deletion of HIF-2α (HIF-2α^flox/flox/LysMcre mice) were utilized.

[3] = tested on: VEGF mRNA; assay: VEGF mRNA expression (qPCR) in HIF-1α−/− fibroblasts; type: cell-based, murine; conditions: hypoxic conditions (1% O2), 1, 10 and 100 μM, vs. hypoxia control, FIG. 1B
Protocol: (§1) Total RNA was isolated from tissues and cells by using TRIzol™ Reagent (Invitrogen) and the RNeasy kit (Qiagen), respectively. 1 μg RNA was used for reverse transcription using SuperScript II First-Strand Synthersis System (Invitrogen). cDNA's were amplified in a SYR Green or TaqMan Universal Master Mix (Applied Biosystems). Quantitative PCR (qPCR) was performed on ABI Prism 7700 sequence detection system. PCR conditions are: 10 min at 95° C., 40 cycles of 15 seconds at 95° C. and 1 minute at 60° C. The relative amount of mRNA was calculated after normalization to β-actin.
(§2) Cells were cultured in DMEM (#11965-092, Invitrogen) supplemented with 10% fetal bovine serum (Invitrogen), 100 U/mL penicillin and […] streptomycin. For glucose deprivation, DMEM without glucose (#11966-025, Invitrogen) was used.
(§3) Mouse embryonic fibroblasts (MEFs) were isolated from E12.5 embryos and immortalized by stable transfection with SV40 large T antigen.

[4] = tested on: phosphoglycerate kinase (PGK) mRNA; assay: PGK mRNA expression (qPCR) in HIF-1α−/− fibroblasts; type: cell-based, murine; conditions: hypoxic conditions (1% O2), 1, 10 and 100 μM, vs. hypoxia control, FIG. 2B
Protocol: as §1, §2, §3

O=C(O)CNC(=O)c1ncc(-c2cccc(F)c2)cc1O [disclosed HIF-2α stabilizer, {[5-(3-Fluorophenyl)-3-hydroxypyridine-2-carbonyl]amino} acetic acid]
HIF-1α protein [1]: no corresponding increase
tumor growth ([2]; LysMcre control mice): inhibited tumor growth
tumor growth ([2]; mice with HIF-2α-deficient macrophages, magnitude much less than in control mice): reduced tumor growth
VEGF mRNA (relative amount) [3]: dramatic reduction
PGK mRNA (relative amount) [4]: dramatic reduction
